Laboratory results: patent US20080096958A1, “Antibacterial Composition” (priority 2004, published 2008)
≈ marks a conversion by molar mass, not a printed value. Where two headings read alike, the source gives them in different places.

Tests used:
Format in all cases: cell-based
[1] = test system: Staphyrococcus epidermidis JCM 2414; assay: MIC by Agar Dilution Test, Se-1; details: read-out: Minimum inhibitory concentration (MIC)
Protocol: (§1) Minimum inhibitory concentration (MIC) was determined by Agar Dilution Test (ADT).
(§2) Each antibacterial composition obtained in Example 1 was dissolved in ethanol or water (according to solubility of each antibacterial composition) to carry out two-fold serial dilution. A hundred μl of the resultant was added to a 10 ml sterilized agar medium (skin-related bacteria and standard bacteria in Mueller-Hinton Medium (Difco), yeast and filamentous bacteria in Sabroud Medium (Difco) and anaerobic bacteria in Trypticase Soy agar (BBL)), well agitated, transferred to a 9 cmf petri dish and immobilized at room temperature. To this petri dish, a 27-spot microplanter MIT-P from Sakuma Seisakusho, LTD. was used to spot 1×10^5 cfu (colony forming unit) of skin-related bacteria and standard bacteria, and the resultants were cultured at 37° C. for 18 hours. Anaerobic bacteria are cultured at 37° C. for 72 hours under anaerobic conditions (using BBL gas pack anaerobic system). After completion of cultivation, growth of each bacterium was compared with that in a petri dish with alcohol alone (blank). A concentration of a sample without a bacterium growth was determined as the minimum inhibitory concentration (MIC).
(§3) As comparative substances, butylparaben (BPHB) and triclosan were determined as well.

[2] = test system: Staphyrococcus epidermidis var. h-6; assay: MIC by Agar Dilution Test, Se-2; details: read-out: Minimum inhibitory concentration (MIC)
Protocol: as §1, §2, §3

[3] = test system: Corynebacterium xerosis JCM 1324; assay: MIC by Agar Dilution Test, Cx-2; details: read-out: Minimum inhibitory concentration (MIC)
Protocol: as §1, §2, §3

[4] = test system: Malassezia furfur IFO 0656; assay: MIC by Agar Dilution Test, Mf-1; details: read-out: Minimum inhibitory concentration (MIC)
Protocol: as §1, §2, §3

[5] = test system: Staphyrococcus aureus 209P IAM 12082; assay: MIC by Agar Dilution Test, Sa-3; details: read-out: Minimum inhibitory concentration (MIC)
Protocol: as §1, §2, §3

[6] = test system: Bacillus subtilis PCI 219 IFO 3134; assay: MIC by Agar Dilution Test, Bs-1; details: read-out: Minimum inhibitory concentration (MIC)
Protocol: as §1, §2, §3
(§4) Minimum inhibitory concentration was determined by Agar Dilution Test described in Example 3 to confirm the difference of antibacterial activities at different mixture ratios.

[7] = test system: Staphyrococcus epidermidis ATCC 12228; assay: MIC by Agar Dilution Test, Se-3; details: read-out: Minimum inhibitory concentration (MIC)
Protocol: as §1, §2, §3

[8] = test system: Staphyrococcus aureus ATCC 6538; assay: MIC by Agar Dilution Test, Sa-4; details: read-out: Minimum inhibitory concentration (MIC)
Protocol: as §1, §2, §3, §4

[9] = test system: Propionibacterium acnes JCM 6473; assay: MIC by Agar Dilution Test, Pa-2; details: Cutibacterium acnes, read-out: Minimum inhibitory concentration (MIC)
Protocol: as §1, §2, §3

[10] = test system: Bacteroides fragilis GM 7000 JCM 5560; assay: MIC by Agar Dilution Test, Bf-1; details: read-out: Minimum inhibitory concentration (MIC)
Protocol: as §1, §2, §3, §4

[11] = test system: Fusobacterium nucleatum JCM 6328; assay: MIC by Agar Dilution Test, Fn-1; details: read-out: Minimum inhibitory concentration (MIC)
Protocol: as §1, §2, §3

[12] = test system: Porphyromonas gingivalis JCM 8525; assay: MIC by Agar Dilution Test, Pg-1; details: read-out: Minimum inhibitory concentration (MIC)
Protocol: as §1, §2, §3

[13] = test system: Prevotella intermedia JCM 6322; assay: MIC by Agar Dilution Test, Pt-1; details: read-out: Minimum inhibitory concentration (MIC)
Protocol: as §1, §2, §3, §4

[14] = test system: Actinomyces naeslundii JCM 8350; assay: MIC by Agar Dilution Test, Aa-1; details: read-out: Minimum inhibitory concentration (MIC)
Protocol: as §1, §2, §3

[15] = test system: Actinomyces viscosus JCM 8352; assay: MIC by Agar Dilution Test, Av-1; details: read-out: Minimum inhibitory concentration (MIC)
Protocol: as §1, §2, §3

[16] = test system: Alicyclobacillus Acidocaldarius (NCIMB); assay: MIC using heat-resistant acidophilic bacteria (liquid medium, turbidity); details: spores in AAM liquid medium, 50° C., 10 days; growth inhibited in all five media
Protocol: (§5) Spores of Alicyclobacillus Acidocaldarius (NCIMB) and Alicyclobacillus Acidoterrestris (NCIMB) were diluted with buffered saline to 1-2 million/100 μl, heated at 80° C. for 10 minutes, and added for 100 μl each per 5 ml of AAM (Alicyclobacillus Acidoterrestris medium) liquid medium. To the test media prepared as above, antibacterial composition (A) obtained in Example 1 was added according to the following steps. Twenty mg/ml, 10 mg/ml, 5 mg/ml and 2.5 mg/ml antibacterial composition (A) in grapefruit flavors were added to respective media (0.1%) (final concentration of antibacterial composition (A): 20 ppm, 10 ppm, 5 ppm and 2.5 ppm). As controls, a medium with 0.1% grapefruit flavor and a blank medium were prepared to confirm that the bacteria grow without a problem. The thus-prepared media were cultured at 50° C. for 10 days, bacteria growth was determined based on the turbidity of the media associated with proliferation of bacteria, thereby checking growth control effects. For each test bacterium and each sample, five media were subjected to the experiment, and a concentration at which bacteria in every media were inhibited was determined as the minimum inhibitory concentration (MIC).
(§6) For comparison, sucrose fatty acid ester was also determined.

[17] = test system: Alicyclobacillus Acidoterrestris (NCIMB); assay: as above; details: spores in AAM liquid medium, 50° C., 10 days; growth inhibited in all five media
Protocol: as §5, §6

[18] = Se-1, Mueller-Hinton agar, 37° C., 18 hours
[19] = Se-2, Mueller-Hinton agar, 37° C., 18 hours
[20] = JCM1324, Cx-2, Mueller-Hinton agar, 37° C., 18 hours
[21] = Mf-1 (yeast), Sabroud Medium agar
[22] = Sa-3, Mueller-Hinton agar, 37° C., 18 hours
[23] = IFO3134, Bs-1, Mueller-Hinton agar, 37° C., 18 hours
[24] = Se-3, Mueller-Hinton agar, 37° C., 18 hours
[25] = Sa-4, Mueller-Hinton agar, 37° C., 18 hours
[26] = JCM6473, Pa-2, Trypticase Soy agar, 37° C., 72 hours, anaerobic
[27] = JCM5560, Bf-1, Trypticase Soy agar, 37° C., 72 hours, anaerobic
[28] = JCM6328, Fn-1, Trypticase Soy agar, 37° C., 72 hours, anaerobic
[29] = JCM8525, Pg-1, Trypticase Soy agar, 37° C., 72 hours, anaerobic
[30] = JCM6322, Pt-1, Trypticase Soy agar, 37° C., 72 hours, anaerobic
[31] = JCM8350, Aa-1, Trypticase Soy agar, 37° C., 72 hours, anaerobic
[32] = JCM8352, Av-1, Trypticase Soy agar, 37° C., 72 hours, anaerobic

Molecule	MIC [1, 18] [µg/mL]	MIC [2, 19] [µg/mL]	MIC [3, 20] [µg/mL]	MIC [4, 21] [µg/mL]	MIC [5, 22] [µg/mL]	MIC [6, 23] [µg/mL]	MIC [7, 24] [µg/mL]	MIC [8, 25] [µg/mL]	MIC [9, 26] [µg/mL]	MIC [10, 27] [µg/mL]	MIC [11, 28] [µg/mL]	MIC [12, 29] [µg/mL]	MIC [13, 30] [µg/mL]	MIC [14, 31] [µg/mL]	MIC [15, 32] [µg/mL]	MIC ([1]; 18 h) [µg/mL]	MIC ([2]; 18 h) [µg/mL]	MIC ([3]; JCM1324, 18 h) [µg/mL]	MIC [4] [µg/mL]	MIC ([5]; 18 h) [µg/mL]	further results
COc1cc(O)c2ccc(=O)oc2c1C/C=C(/C)CCC=C(C)C [Antibacterial composition (F), 8-(3′,7′-dimethyl-2′,6′-octadienyl)-5-hydroxy-7-methoxy-2H-1-benzopyran-2-one]	200 (≈ 609 µM)	200 (≈ 609 µM)	200 (≈ 609 µM)	25 (≈ 76.1 µM)	25 (≈ 76.1 µM)	200 (≈ 609 µM)	200 (≈ 609 µM)	200 (≈ 609 µM)	25 (≈ 76.1 µM)	100 (≈ 304 µM)	25 (≈ 76.1 µM)	25 (≈ 76.1 µM)	100 (≈ 304 µM)	25 (≈ 76.1 µM)	25 (≈ 76.1 µM)	–	–	–	–	–	–
CCCCOC(=O)c1ccc(O)cc1 [Butylparaben, butylparaben, reference compound]	–	–	–	–	–	–	–	–	–	–	–	–	–	–	–	200 (≈ 1030 µM)	200 (≈ 1030 µM)	50 (≈ 257 µM)	100 (≈ 515 µM)	100 (≈ 515 µM)	MIC ([6]; IFO3134, 18 h): 200 µg/mL (≈ 1030 µM); MIC ([7]; 18 h): 200 µg/mL (≈ 1030 µM); MIC ([8]; 18 h): 200 µg/mL (≈ 1030 µM); MIC ([9]; JCM6473, 72 h): 100 µg/mL (≈ 515 µM); MIC ([10]; JCM5560, 72 h): 50 µg/mL (≈ 257 µM); MIC ([11]; JCM6328, 72 h): 100 µg/mL (≈ 515 µM); MIC ([12]; JCM8525, 72 h): 50 µg/mL (≈ 257 µM); MIC ([13]; JCM6322, 72 h): 100 µg/mL (≈ 515 µM); MIC ([14]; JCM8350, 72 h): 100 µg/mL (≈ 515 µM); MIC ([15]; JCM8352, 72 h): 100 µg/mL (≈ 515 µM)
sucrose fatty acid ester	–	–	–	–	–	–	–	–	–	–	–	–	–	–	–	–	–	–	–	–	Minimum inhibitory concentration (MIC) [16]: 20 ppm; Minimum inhibitory concentration (MIC) [17]: 20 ppm
CC(C)=CCC/C(C)=C\Cc1c2occc2c(O)c2ccc(=O)oc12 [Antibacterial composition (G), 9-(3′,7′-dimethyl-2′,6′-octadienyl)-4-hydroxy-7H-furo[3,2-γ][1]benzopyran-7-one]	200 (≈ 591 µM)	200 (≈ 591 µM)	200 (≈ 591 µM)	50 (≈ 148 µM)	100 (≈ 296 µM)	200 (≈ 591 µM)	200 (≈ 591 µM)	200 (≈ 591 µM)	100 (≈ 296 µM)	100 (≈ 296 µM)	50 (≈ 148 µM)	50 (≈ 148 µM)	100 (≈ 296 µM)	200 (≈ 591 µM)	100 (≈ 296 µM)	–	–	–	–	–	–
Oc1cc(Cl)ccc1Oc1ccc(Cl)cc1Cl [Triclosan, triclosan, reference compound]	–	–	–	–	–	–	–	–	–	–	–	–	–	–	–	1.6 (≈ 5.53 µM)	1.6 (≈ 5.53 µM)	3.1 (≈ 10.7 µM)	1.6 (≈ 5.53 µM)	1.6 (≈ 5.53 µM)	MIC ([6]; IFO3134, 18 h): 0.78 µg/mL (≈ 2.69 µM); MIC ([7]; 18 h): 1.6 µg/mL (≈ 5.53 µM); MIC ([8]; 18 h): 1.6 µg/mL (≈ 5.53 µM)
